For data set [1], the target named is T1, DPPIV (Homo sapiens, UniProt P27487).
T1 construct: from tissue; host or cells: prostasomes from human seminal plasma, purified on immobilized adenosine deaminase
As to the kind of experiment: biochemical. Type of data set: biochemical. How it is done: (§1) All enzymatic reactions were carried out in 50 mM Tris.HCl buffer pH 8.3 at 37° C. with Gly-Pro-4-Me-2-naphtylamine.HCl as substrate. One activity unit is defined as the amount of enzyme which catalyzes the conversion of 1 micromole of substrate per minute at 37° C. All experiments were carried out with the same stock solution of DPPIV containing 1.8 units/ml. The enzyme was diluted (usually 1/200 or 1/500) in reaction buffer immediately before the experiment to a suitable concentration so as not to consume more that 10% of the substrate during the incubation period.
The remaining activity was determined by adding 5 microliter of a 1 mM solution of Gly-Pro-4-Me-2-naphtylamine.HCl. The reaction mixture containing enzyme, substrate and inhibitor was incubated for 20 min at 37° C. The reaction was stopped by addition of 0.5 ml 100 mM citrate pH 4.0. The fluorescence of the sample was measured within 2 h after quenching. The measurements were done in duplicate and corrected for background fluorescence using a blanc with exactly the same composition except that the citrate solution was added before the substrate.

A short description of data set [2]: Functional stability of DPPIV inhibitors in human citrated plasma. Type of data set: in vitro ADME. To be noted: 37° C. How it is done:
(§2) To determine the functional stability of the inhibitors in the reaction medium, a 10 mM stock solution in DMSO was diluted 50-fold in 50 mM TRIS buffer pH 8.3 and incubated at 37° C. To determine the functional stability in plasma, a 50 mM stock solution in DMSO was diluted 50-fold in fresh or freshly frozen citrated plasma from a healthy donor and incubated at 37° C. At specific time intervals an aliquot was withdrawn, added to an equal volume of DPPIV diluted in buffer or to an equal volume of plasma and the kinetics of inactivation were determined as described under b). The reduction in observed pseudo-first order rate constant is a measure for the amount of functional inhibitor lost during the incubation and allowed to estimate the half-life of the inhibitors in buffer and plasma. The following table lists the results.

Data set [3] in a line: Functional stability of DPPIV inhibitors in the reaction medium (buffer). Format: physicochemical. To be noted: 50 mM TRIS buffer pH 8.3, 37° C. How it is done:
as §2

In data set [4] the target is T1, DPPIV. In words: Stability of the inhibitor-DPPIV adduct. Type of data set: biochemical. The note with it: DPPIV incubated with 0.5 mM inhibitor 1 hour, excess removed by gel filtration. How it is done:
The phosphorylated enzyme is expected to hydrolyze slowly by action of solvent or nucleophilic groups on the enzyme.
The stability of the adduct was determined as follows. […] Excess inhibitor was removed by gel filtration on a PD 10 column (Pharmacia Biotech, Uppsala, Sweden) previously equilibrated with 50 mM Tris.HCl buffer, pH 8.3.

The target in data set [5] is T1, DPPIV. Format: biochemical. The note with it: inhibitor 0.1 or 0.5 mM, 37° C.; k+ = kobs/[I]o. How it is done:
as §1
The kinetics of inactivation were measured by adding an appropriate concentration of inhibitor (0.1 or 0.5 mM) to 0.5 ml of enzyme in reaction buffer at 37° C. and determining the activity at various time points after mixing. To achieve this, 25 microliter samples were withdrawn and diluted […] in 2 mM Gly-Pro-4-Me-2-naphthylamine.HCl. The reaction was quenched with citrate after 10 to 15 min and the fluorescence was determined. The dilution in an excess of substrate reduced the velocity of inhibitor binding by a factor of 20. The decrease in fluorescence with time was fitted with the equation of a monoexponential decay yielding the pseudo-first order rate constant for binding (kobs) in the exponent. The second order rate constant (k+) was calculated as follows: k+ =kobs /[I]o where [I]o is the concentration of inhibitor in the incubation mixture.

Data set [6] has as its target T2, purified prolyl oligopeptidase (Homo sapiens, UniProt P48147).
T2 construct: from tissue; host or cells: human blood cells: platelets or mononuclear cells, not specified
T2 sequence (P48147 1-710): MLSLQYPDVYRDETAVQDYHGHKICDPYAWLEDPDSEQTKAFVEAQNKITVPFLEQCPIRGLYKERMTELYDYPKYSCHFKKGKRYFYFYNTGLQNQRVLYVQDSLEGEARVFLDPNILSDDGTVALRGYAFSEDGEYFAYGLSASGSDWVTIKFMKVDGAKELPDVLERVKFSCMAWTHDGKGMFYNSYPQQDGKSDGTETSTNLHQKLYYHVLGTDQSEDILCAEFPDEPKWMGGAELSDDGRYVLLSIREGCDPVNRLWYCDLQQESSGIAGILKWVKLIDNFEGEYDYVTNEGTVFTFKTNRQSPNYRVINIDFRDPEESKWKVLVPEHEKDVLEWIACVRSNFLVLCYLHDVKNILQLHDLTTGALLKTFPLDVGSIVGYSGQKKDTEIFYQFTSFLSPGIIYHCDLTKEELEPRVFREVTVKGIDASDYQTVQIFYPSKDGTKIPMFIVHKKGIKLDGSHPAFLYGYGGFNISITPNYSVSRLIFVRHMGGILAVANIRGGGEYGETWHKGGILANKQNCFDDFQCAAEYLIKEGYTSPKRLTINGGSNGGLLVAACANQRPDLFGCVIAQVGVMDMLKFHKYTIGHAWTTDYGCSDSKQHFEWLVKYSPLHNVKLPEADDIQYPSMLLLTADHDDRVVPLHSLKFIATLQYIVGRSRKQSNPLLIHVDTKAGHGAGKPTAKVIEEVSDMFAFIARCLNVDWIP
As to the kind of experiment: biochemical. How it is done:
(§3) The remaining activity was determined by adding 5 μl substrate (Z-Gly-Pro-AMC, 5.6 mM) and measurement of the fluorescence at λex 370 nm, λem 440 nm after a further 20 min incubation at 37° C. The inhibitors were dissolved in methanol and control experiments were performed to correct for the presence of the solvents used. The IC50 value was derived from a plot, joining the residual activity and the dosis of the respective compounds (at least eight concentrations tested). The Ki values were derived from a direct linear plot (Dixon-plot). The measurements were performed in triplicate and only those lines having a correlation coefficient of at least 0.95 were used for determination of the Ki value.
Several peptides (cfr. table) were incubated with purified prolyl oligopeptidase. The compounds were dissolved in H2 O. The IC50 value was determined as previously described apart from the preincubation which was deleted. […]

Data set [7] addresses T3, purified human platelet prolyl oligopeptidase (Homo sapiens, UniProt P48147).
T3 construct: purified human platelet prolyl oligopeptidase; from tissue; host or cells: human thrombocytes (platelets)
T3 sequence (P48147 1-710): T2 sequence (P48147 1-710)
In words: In vitro inhibition of PEP. Format: biochemical. To be noted: for IC50: 20 min preincubation at 37° C., substrate Z-Gly-Pro-AMC; for Ki: Dixon-plot. How it is done: as §3

[8] abbreviates: 1 hour preincubation at room temperature, substrate Gly-Pro-4-Me-2-naphtylamine.HCl, Tris.HCl pH 8.3, 37° C., inhibitory diastereoisomer unless marked *, read-out: IC50.
Where [9] appears, read: peptides dissolved in H2O, no preincubation, read-out: IC50.

Counter-ions that a name gives are not always drawn. Like-named read-outs stand apart in the source and are kept apart here. No end group written: not given here.

T1 sequence (P27487 whole entry): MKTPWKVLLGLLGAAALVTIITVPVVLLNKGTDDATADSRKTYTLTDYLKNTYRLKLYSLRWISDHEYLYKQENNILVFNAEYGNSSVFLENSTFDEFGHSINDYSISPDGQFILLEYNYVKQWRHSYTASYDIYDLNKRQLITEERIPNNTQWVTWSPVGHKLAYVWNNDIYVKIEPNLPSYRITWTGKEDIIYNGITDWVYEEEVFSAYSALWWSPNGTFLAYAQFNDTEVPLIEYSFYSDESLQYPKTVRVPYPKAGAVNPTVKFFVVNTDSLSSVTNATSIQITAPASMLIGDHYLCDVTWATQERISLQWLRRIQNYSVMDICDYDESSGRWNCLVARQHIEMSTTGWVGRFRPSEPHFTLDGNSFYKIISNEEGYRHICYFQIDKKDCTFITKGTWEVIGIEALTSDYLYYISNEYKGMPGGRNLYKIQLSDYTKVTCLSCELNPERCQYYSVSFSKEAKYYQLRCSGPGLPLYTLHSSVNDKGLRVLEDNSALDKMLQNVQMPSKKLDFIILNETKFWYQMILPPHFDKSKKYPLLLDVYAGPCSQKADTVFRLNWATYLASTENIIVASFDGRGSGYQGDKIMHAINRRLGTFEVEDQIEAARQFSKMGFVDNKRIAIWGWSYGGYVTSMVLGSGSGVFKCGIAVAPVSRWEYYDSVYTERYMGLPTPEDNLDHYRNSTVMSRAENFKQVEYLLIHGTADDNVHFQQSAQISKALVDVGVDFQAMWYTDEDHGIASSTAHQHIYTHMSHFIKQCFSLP

Take `CC[C@H](C)[C@H](N)C(=O)N1CCC(F)C1.O=C(O)C(F)(F)F` (mixture of isomers) [Ile-3-Fluoro-pyrrolidine, 1-(L-Isoleucyl)-3(R,S)-fluoropyrrolidine trifluoroacetate]: the “inhibitory activity on DPPIV (in words)” value on DPPIV [1] is recorded as “particularly active inhibitor”.
`Cl.Cl.N=C(N)NCCC[C@H](N)C(=O)N1CCCC1P(=O)(Oc1ccccc1)Oc1ccccc1` (stereo partly drawn) [(S)-Arg-(S,R)-Pro^P (OPh)2, Diphenyl (S,R)-1-[(S)-arginyl]pyrrolidine-2-phosphonate dihydrochloride] gave a t1/2 in plasma in data set [2] of 1.9 ± 0.2 h. This compound also displayed a t1/2 in buffer in data set [3] of 2.6 ± 0.3 h.
In data set [2], `CC[C@H](C)[C@H](N)C(=O)N1CCC[C@H]1P(=O)(Oc1ccccc1)Oc1ccccc1.Cl` [(S)-Ile-(R)-Pro^P (OPh)2, Diphenyl (R)-1-[(S)-isoleucinyl]pyrrolidine-2-phosphonate hydochloride] registered a t1/2 in plasma of 1.4 ± 0.9 h. In data set [3], this compound displayed a t1/2 in buffer of 10 ± 5 h.
As to `Cl.N[C@@H](Cc1ccccc1)C(=O)N1CCC[C@@H]1P(=O)(Oc1ccccc1)Oc1ccccc1` [AB22, Diphenyl (S)-1-[(S)-phenaylalyl]pyrrolidine-2-phosphonate hydrochloride], the “inhibitory activity on DPPIV (in words)” value at DPPIV [1] is “inactive”.
On to `C[C@H](N)C(=O)N1CCCC1P(=O)(Oc1ccccc1)Oc1ccccc1.Cl` (stereo partly drawn) [Ala-Pro-(OPh)2, Diphenyl (S,R)-1-[(S)-alanyl]pyrrolidine-2-phosphonate hydrochloride], for which, at DPPIV [4], the “stability of the adduct at room temperature” value (from here on “stability of the adduct”) is > 4 weeks. Further, the IC50 on DPPIV [1] (setting [8]) came out at 2000 µM. In addition, the “K+ (second order rate constant)” value at DPPIV [5] stood at 0.7 M⁻¹ s⁻¹.
Regarding `CC[C@H](C)[C@H](NC(=O)[C@H](Cc1ccc(O)cc1)NC(=O)[C@@H](NC(=O)[C@H](CCCNC(=N)N)NC(=O)[C@@H](N)CC(=O)O)C(C)C)C(=O)N[C@@H](Cc1c[nH]cn1)C(=O)N1CCC[C@H]1C(=O)O` [Angiotensin (1-7)], the IC50 in data set [6] (setting [9]) came out at 750 µM.
Regarding `CC[C@H](C)[C@H](NC(=O)[C@H](Cc1ccc(O)cc1)NC(=O)[C@@H](NC(=O)[C@H](CCCNC(=N)N)NC(=O)[C@@H](N)CC(=O)O)C(C)C)C(=O)N[C@@H](Cc1cnc[nH]1)C(=O)N1CCC[C@H]1C(=O)N[C@@H](Cc1ccccc1)C(=O)O` [Angiotensin II], the IC50 in data set [6] (setting [9]) worked out at 25 µM.
As to `N[C@@H](CC1CCCCC1)C(=O)N1CCC[C@H]1P(=O)(Oc1ccccc1)Oc1ccccc1` [Cyclohexylalanine-Pro^P -(OPh)2, Diphenyl (R)-1-[(S)-cyclohexylalanyl]pyrrolidine-2-phosphonate hydrochloride], in data set [2], the t1/2 in plasma came out at 0.3 ± 0.1 h. In data set [3], this compound came in with a t1/2 in buffer of 4.5 ± 0.8 h.
Turning to `CC[C@H](C)[C@H](N)C(=O)N1CCCC1P(=O)(Oc1ccccc1)Oc1ccccc1.Cl` (stereo partly drawn) [Ile-Pro-^P -(OPh)2, Diphenyl (S,R)-1-[(S)-isoleucinyl]pyrrolidine-2-phosphonate hydochloride], the “stability of the adduct” value at DPPIV [4] is > 3 weeks. Moreover, the IC50 at DPPIV [1] (setting [8]) stood at 350 µM. The “K+ (second order rate constant)” value at DPPIV [5] worked out at 2.3 M⁻¹ s⁻¹.
`CC(C)(C)Oc1ccc(C[C@H](N)C(=O)N2CCCC2P(=O)(Oc2ccccc2)Oc2ccccc2)cc1` (stereo partly drawn) [O-tbutyl-Tyr-Pro^P -(OPh)2]: the 50% inhibitory concentration (IC50) on DPPIV [1] (setting [8]) is 1000 µM. For the same compound, the “K+ (second order rate constant)” value on DPPIV [5] worked out at 0.5 M⁻¹ s⁻¹.
Turning to `Cl.N[C@@H](Cc1ccccc1)C(=O)N1CCC[C@H]1P(=O)(Oc1ccccc1)Oc1ccccc1` [Phe-Pro^P -(OPh)2, Diphenyl (R)-1-[(S)-phenylalanyl]pyrrolidine-2-phosphonate hydrochloride], the “stability of the adduct” value at DPPIV [4] is > 3 weeks. Also, the t1/2 in plasma in data set [2] is reported as 0.7 ± 0.1 h. The compound further displayed an IC50 against DPPIV [1] of 70 µM. For the same compound, the t1/2 in buffer in data set [3] was determined as 6 ± 1 h.
Regarding `CSCC[C@H](NC(=O)[C@H](CC(C)C)NC(=O)CNC(=O)[C@H](Cc1ccccc1)NC(=O)[C@H](Cc1ccccc1)NC(=O)[C@H](CCC(N)=O)NC(=O)[C@H](CCC(N)=O)NC(=O)[C@@H]1CCCN1C(=O)[C@H](CCCCN)NC(=O)[C@@H]1CCCN1C(=O)[C@@H](N)CCCN=C(N)N)C(N)=O` [Substance P], in data set [6], the IC50 was 163 µM.
As to `O=C(NC(Cc1ccccc1)C(=O)N1CCC1)OCc1ccccc1` (stereo not drawn) [Z-Phe-azetidine], inhibition in data set [7] was half-maximal at 30 µM (IC50).
For the compound `O=C([C@@H]1CCCN1C(=O)OCc1ccccc1)N1CCC(F)C1` (stereo partly drawn) [Z-Pro-3-fluoropyrrolidine, 1-[N-Benzyloxycarbonyl-L-propyl]-3(R,S)-fluoropyrrolidine], in data set [7], the “inhibitory activity on PEP (in words)” value was “particularly active inhibitor”, the concentration for half-maximal inhibition (IC50) was determined as 0.45 µM and the Ki was 0.1 µM.
Regarding `O=C(C1CCCN1C(=O)OCc1ccccc1)N1CCC1` (stereo not drawn) [Z-Pro-azetidine], in data set [7], the IC50 was determined as 3 µM and the affinity corresponds to a Ki of 2.5 µM.
Turning to `O=C(C1CSCN1C(=O)OCc1ccccc1)N1CCC1` (stereo not drawn) [Z-thiopro-azetidine], in data set [7], half-maximal inhibition (IC50) required 1.8 µM and the affinity, expressed as Ki, was 5 µM.
As to `Cl.N[C@@H](Cc1ccc(F)cc1)C(=O)N1CCC[C@H]1P(=O)(Oc1ccccc1)Oc1ccccc1` [pF-Phe-Pro^P -(OPh)2, Diphenyl (R)-1-[(S)-p-fluorophenylalanyl]pyrrolidine-2-phosphonate hydrochloride], the “stability of the adduct” value at DPPIV [4] is listed as > 4 weeks. This compound also gave a t1/2 in plasma in data set [2] of 0.7 ± 0.1 h. On DPPIV [1], this compound returned an IC50 of 100 µM. The compound also registered a t1/2 in buffer in data set [3] of 8.9 ± 0.1 h.
Turning to RPPGFSPFR [Bradykinin], 7 µM corresponded to half-maximal inhibition in data set [6] (IC50).
